Article PMC7397076 (Molecules, 2020)
In brackets after ≈: the same amount, converted by molar mass. Like-named read-outs stand apart in the source and are kept apart here.

Tests used:
[1] = tested on: Mycobacterium tuberculosis H37Rv; experiment: Microplate Alamar Blue Assay (MABA), antitubercular activity; assay type: cell-based
Vero cell line = experiment: Cytotoxicity test, MTT assay; assay type: cell-based, African green monkey; details: Chlorocebus sabaeus, 24 h, Vero cells, 24 h exposure, 0.1–200 µg/mL, read-out: Vero Cell Line IC50 ± SEM
InhA reductase enzyme = InhA reductase enzyme (Mycobacterium tuberculosis, UniProt P9WGR1); experiment: In vitro InhA enzyme inhibition (NADH oxidation at 340 nm)
[2] = M. tuberculosis H37Rv, MABA, lowest concentration giving ≥90% reduction in fluorescence
[3] = Mycobacterium tuberculosis, H37RV, M. tuberculosis H37Rv, MABA, lowest concentration giving ≥90% reduction in fluorescence, read-out: MIC

InhA reductase enzyme, sequence (P9WGR1 whole entry, looked up): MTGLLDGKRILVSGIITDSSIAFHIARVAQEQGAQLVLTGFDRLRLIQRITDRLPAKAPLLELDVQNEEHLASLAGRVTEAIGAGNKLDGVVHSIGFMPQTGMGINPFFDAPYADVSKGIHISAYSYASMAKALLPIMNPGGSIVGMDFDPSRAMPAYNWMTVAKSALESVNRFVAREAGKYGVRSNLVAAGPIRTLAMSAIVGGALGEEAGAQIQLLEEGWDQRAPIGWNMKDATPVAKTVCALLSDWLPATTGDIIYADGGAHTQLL

SMILES	MIC [1, 2]	MIC [1, 3]	IC50 (Vero cell line)	IC50 (InhA reductase enzyme)	melting point	MIC ([1]; Mycobacterium tuberculosis, H37RV)
NNC(=O)c1ccc(Oc2ccccc2)cc1 [Compound 3, 4-Phenoxybenzohydrazide]	0.86 µg/mL (≈ 3.77 µM)	0.61 to 1.69 µg/mL (≈ 2.67 to 7.4 µM)	> 60 µg/mL	3.43 µM	–	–
c1ccc(Oc2ccc(-c3nnco3)cc2)cc1 [Compound 4, 2-(4-Phenoxyphenyl)-1,3,4-oxadiazole]	0.61 µg/mL (≈ 2.56 µM)	0.61 to 1.69 µg/mL (≈ 2.56 to 7.09 µM)	> 60 µg/mL	3.28 µM	–	–
c1ccc(Oc2ccc(-c3nnc(-c4ccccc4)o3)cc2)cc1 [Compound 6a, 2-(4-Phenoxyphenyl)-5-phenyl-1,3,4-oxadiazole]	–	2.74 µg/mL (≈ 8.72 µM)	–	> 100 µM	233 to 235 °C	–
COc1cc(-c2nnc(-c3ccc(Oc4ccccc4)cc3)o2)cc(OC)c1OC [Compound 6b, 2-(4-Phenoxyphenyl)-5-(3,4,5-trimethoxyphenyl)-1,3,4-oxadiazole]	–	34.6 µg/mL (≈ 85.7 µM)	–	> 100 µM	250 to 253 °C	–
COc1ccc(-c2nnc(-c3ccc(Oc4ccccc4)cc3)o2)cc1 [Compound 6c, 2-(4-Methoxyphenyl)-5-(4-phenoxyphenyl)-1,3,4-oxadiazole]	–	39 µg/mL (≈ 113 µM)	–	> 100 µM	226 to 228 °C	–
O=[N+]([O-])c1ccc(-c2nnc(-c3ccc(Oc4ccccc4)cc3)o2)cc1 [Compound 6d, 2-(4-Nitrophenyl)-5-(4-phenoxyphenyl)-1,3,4-oxadiazole]	–	15.2 µg/mL (≈ 42.2 µM)	–	68.4 µM	226 to 228 °C	–
Clc1ccc(-c2nnc(-c3ccc(Oc4ccccc4)cc3)o2)cc1 [Compound 6e, 2-(4-Chlorophenyl)-5-(4-phenoxyphenyl)-1,3,4-oxadiazole]	–	15.9 µg/mL (≈ 45.6 µM)	–	64.5 µM	–	–
c1ccc(COc2ccc(-c3nnc(-c4ccc(Oc5ccccc5)cc4)o3)cc2)cc1 [Compound 6f, 2-(4-(Benzyloxy)phenyl)-5-(4-phenoxyphenyl)-1,3,4-oxadiazole]	–	8.23 µg/mL (≈ 19.6 µM)	–	41.2 µM	226 to 229 °C	–
c1ccc(Oc2ccc(-c3nnc(-c4cccc5ccccc45)o3)cc2)cc1 [Compound 6g, 2-(Naphthalen-1-yl)-5-(4-phenoxyphenyl)-1,3,4-oxadiazole]	–	12.2 µg/mL (≈ 33.6 µM)	–	33.8 µM	173 to 175 °C	–
c1ccc(Oc2ccc(-c3nnc(-c4cccnc4)o3)cc2)cc1 [Compound 6h, 2-(4-Phenoxyphenyl)-5-(pyridin-3-yl)-1,3,4-oxadiazole]	–	–	> 60 µg/mL	5.08 µM	143 to 144 °C	–
c1ccc(Oc2ccc(-c3nnc(-c4ccncc4)o3)cc2)cc1 [Compound 6i, 2-(4-Phenoxyphenyl)-5-(pyridin-4-yl)-1,3,4-oxadiazole]	–	–	> 60 µg/mL	11.7 µM	125 to 127 °C	–
c1ccc(Oc2ccc(-c3nnc(-c4ccco4)o3)cc2)cc1 [Compound 6j, 2-(Furan-2-yl)-5-(4-phenoxyphenyl)-1,3,4-oxadiazole]	–	11.1 µg/mL (≈ 36.5 µM)	–	51.4 µM	129 to 132 °C	–
c1ccc(Oc2ccc(-c3nnc(-c4cccs4)o3)cc2)cc1 [Compound 6k, 2-(4-Phenoxyphenyl)-5-(thiophen-2-yl)-1,3,4-oxadiazole]	–	–	68.6 ± 1.19 µg/mL (≈ 214 µM)	78.6 µM	139 to 141 °C	–
c1ccc(Oc2ccc(-c3nnc(-c4ccc(Oc5ccccc5)cc4)o3)cc2)cc1 [Compound 6l, 2,5-bis(4-Phenoxyphenyl)-1,3,4-oxadiazole]	1.17 µg/mL (≈ 2.88 µM)	0.61 to 1.69 µg/mL (≈ 1.5 to 4.16 µM)	> 60 µg/mL	5.63 µM	232 to 234 °C	–
O=C(N/N=C/c1ccccc1)c1ccc(Oc2ccccc2)cc1 [Compound 8a, (E)-N′-Benzylidene-4-phenoxybenzohydrazide]	–	34.5 µg/mL (≈ 109 µM)	–	73.2 µM	163 to 165 °C	–
COc1cc(/C=N/NC(=O)c2ccc(Oc3ccccc3)cc2)cc(OC)c1OC [Compound 8b, (E)-4-Phenoxy-N′-(3,4,5-trimethoxybenzylidene)benzohydrazide]	–	50.2 µg/mL (≈ 124 µM)	–	> 100 µM	191 to 192 °C	–
COc1ccc(/C=N/NC(=O)c2ccc(Oc3ccccc3)cc2)cc1 [Compound 8c, (E)-N′-(4-Methoxybenzylidene)-4-phenoxybenzohydrazide]	–	20.7 µg/mL (≈ 59.7 µM)	–	75.5 µM	233 to 235 °C	–
O=C(N/N=C/c1ccc(Cl)cc1)c1ccc(Oc2ccccc2)cc1 [Compound 8e, (E)-N′-(4-Chlorobenzylidene)-4-phenoxybenzohydrazide]	–	2.89 µg/mL (≈ 8.24 µM)	–	7.46 µM	184 to 186 °C	–
O=C(N/N=C/c1ccc(OCc2ccccc2)cc1)c1ccc(Oc2ccccc2)cc1 [Compound 8f, (E)-N′-[4-(Benzyloxy)benzylidene]-4-phenoxybenzohydrazide]	–	22.6 µg/mL (≈ 53.5 µM)	–	29.9 µM	228 to 231 °C	–
O=C(N/N=C/c1cccc2ccccc12)c1ccc(Oc2ccccc2)cc1 [Compound 8g, (E)-N′-(Naphthalen-1-ylmethylene)-4-phenoxybenzohydrazide]	–	–	> 60 µg/mL	4.23 µM	193 to 195 °C	–
O=C(N/N=C/c1cccnc1)c1ccc(Oc2ccccc2)cc1 [Compound 8h, (E)-4-Phenoxy-N′-(pyridin-3-ylmethylene)benzohydrazide]	–	6.96 µg/mL (≈ 21.9 µM)	–	26.5 µM	149 to 151 °C	–
O=C(N/N=C/c1ccncc1)c1ccc(Oc2ccccc2)cc1 [Compound 8i, (E)-4-Phenoxy-N′-(pyridin-4-ylmethylene)benzohydrazide]	–	6.82 µg/mL (≈ 21.5 µM)	–	21.4 µM	175 to 177 °C	–
O=C(N/N=C/c1ccco1)c1ccc(Oc2ccccc2)cc1 [Compound 8j, (E)-N′-(Furan-2-ylmethylene)-4-phenoxybenzohydrazide]	–	6.35 µg/mL (≈ 20.7 µM)	–	18.4 µM	–	–
O=C(N/N=C/c1cccs1)c1ccc(Oc2ccccc2)cc1 [Compound 8k, (E)-4-Phenoxy-N′-(thiophen-2-ylmethylene)benzohydrazide]	–	–	> 60 µg/mL	5.61 µM	182 to 183 °C	–
NNC(=O)c1ccncc1 [INH, isoniazid, reference compound]	0.20 µg/mL (≈ 1.46 µM)	0.2 µg/mL (≈ 1.46 µM)	–	–	–	–
Oc1cc(Cl)ccc1Oc1ccc(Cl)cc1Cl [Triclosan, triclosan, reference compound]	10.00 µg/mL (≈ 34.5 µM)	–	–	–	–	10 µg/mL (≈ 34.5 µM)
